In brackets after ≈: the same amount, converted by molar mass. Counter-ions that a name gives are not always drawn. Like-named read-outs stand apart in the source and are kept apart here.
Legend:
[1] = system: E. coli DH5αZ1 expressing TetX7; assay: Minimum inhibitory concentration, TetX7-expressing strain; assay type: cell-based; conditions: Escherichia coli, 20 h
Method: (§1) The panels were stored at −80 °C before use. Single colonies of E. coli DH5αZ1 containing TetX7, Tet50, or empty vector in pZE24 expression system were grown in MH-II broth with KAN50 and growth for overnight at 37 °C. On the day of the experiment, MIC panels were thawed at room temperature. […] The panels were incubated at 37 °C for 20 h, then scored by visual inspection. […] Each test was performed in triplicate, with no-antibiotic and no-cell control wells.
(§2) Minimum inhibitory concentrations (MICs) were determined using the broth microdilution method according to CLSI guidelines. Visual inspection of bacterial growth and measurement of the OD600 were used to determine the lowest concentration at which bacterial growth was inhibited.

[2] = system: E. coli DH5αZ1 expressing Tet50; assay: Minimum inhibitory concentration, Tet50-expressing strain; assay type: cell-based; conditions: 20 h; for MIC: Escherichia coli; for MIC, Tet50, +TC: presence of 8 μg/mL TC, 37 °C
Method: as §1, §2

[3] = molecular target: T1, Tet50 (Unknown prokaryotic organism, UniProt A0A059WYP6); assay: In vitro inhibition of TC oxidation by Tet50 (A400), variable preincubation, dark or blue light; assay type: biochemical; conditions: role: inhibitor, 100 μM TC, 500 μM NADPH
T1 construct: made in house; host or cells: E. coli BL21-Star (DE3)
Method: PHBH activity was determined similarly using para-hydroxybenzoic acids as substrate and monitoring for NADPH consumption via A340. […] Reaction samples were prepared in a Costar 96-well flat bottom clear, polystyrene plate and incubated under dark or a 700 lm blue LED bulb held at a distance of 20 cm for various durations. Incubation times were 0, 30, 60, 120, and 240 min under dark or 0, 1, 2, 4, and 8 min under blue light. […] Initial enzyme velocities were determined by linear regression over the linear range of the reaction (typically between 0 and 1 min). […] The velocities were plotted against the logarithm of inhibitor concentration, and apparent IC50 plots were analyzed using GraphPad prism 10 software. […] All apparent IC50 values were plotted against the duration of incubation time and fitted to an exponential decay function. All data points were shown as means and error bars represented standard deviation at least two independent experiments.
TetX7 and TetX6 as model Type 1 enzymes and Tet50 as a model Type 2 enzyme were used.
A hallmark of covalent enzyme inhibition was time dependence given that longer exposure of the enzyme to the inhibitor allowed for more inactivating turnovers. […] The apparent IC50 values were determined for each preincubation time point by monitoring the TDase velocity at A400 under various inhibitor concentrations. The apparent IC50 values were plotted against the preincubation times to determine if the TDase inhibition was time-dependent (FIG. 6).

[4] = dark, 30 min preincubation of inhibitor with enzyme prior to initiating assay, read-out: Apparent IC50 values, Tet50
[5] = read-out: Apparent IC50 value over 7 min blue light, blue light, 7 min

T1 sequence (A0A059WYP6 whole entry): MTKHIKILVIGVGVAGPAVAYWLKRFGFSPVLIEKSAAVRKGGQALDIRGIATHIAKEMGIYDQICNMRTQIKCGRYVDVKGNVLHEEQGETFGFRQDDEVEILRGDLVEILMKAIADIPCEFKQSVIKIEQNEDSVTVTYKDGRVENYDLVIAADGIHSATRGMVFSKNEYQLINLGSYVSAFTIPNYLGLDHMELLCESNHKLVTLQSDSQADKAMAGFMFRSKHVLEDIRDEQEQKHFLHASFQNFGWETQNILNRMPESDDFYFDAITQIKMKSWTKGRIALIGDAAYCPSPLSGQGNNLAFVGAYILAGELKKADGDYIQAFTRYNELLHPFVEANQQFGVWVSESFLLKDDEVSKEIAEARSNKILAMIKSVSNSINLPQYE

Cc1c2c(c(O)c3c(O)c(CNC4(C)CC4)ccc13)C(=O)C1(O)C(=O)C(C(N)=O)=C(O)C(N(C)C)C1C2 [Compound 103, (4S,4aS,12aS)-4-(Dimethylamino)-3,10,11,12a-tetrahy-droxy-6-methyl-9-(((1-methylcyclopropyl)amino)methyl)-1,12-dioxo-1,4,4a,5,12,12a-hexahydrotetracene-2-carboxamide Hydrochloride]
MIC ([1]; read-out: MIC, TetX7, −TC): 64 µg/mL
MIC ([2]; read-out: MIC, Tet50, −TC): 64 µg/mL
MIC, Tet50, +TC [2]: 16 µg/mL

C#CCNCc1ccc2c(C)c3c(c(O)c2c1O)C(=O)[C@]1(O)C(=O)C(C(N)=O)=C(O)[C@@H](N(C)C)[C@@H]1C3.Cl [Compound 104, (4S,4aS,12aS)-4-(Dimethylamino)-3,10,11,12a-tetrahydroxy-6-methyl-1,12-dioxo-9-((prop-2-yn-1-ylamino)-methyl)-1,4,4a,5,12,12a-hexahydrotetracene-2-carboxamide Hydrochloride]
IC50 [3, 4]: 600 ± 40 µM
MIC, Tet50, +TC [2]: 8 µg/mL

C#CCN(C)Cc1ccc2c(C)c3c(c(O)c2c1O)C(=O)[C@]1(O)C(=O)C(C(N)=O)=C(O)[C@@H](N(C)C)[C@@H]1C3 [Compound 105]
IC50 [3, 5]: 107 ± 6 µM
IC50 [3, 4]: 470 ± 60 µM
MIC ([2]; read-out: MIC, Tet50, −TC): 32 µg/mL (≈ 63 µM)
MIC, Tet50, +TC [2]: 16 µg/mL

Cc1c2c(c(O)c3c(O)cccc13)C(=O)[C@]1(O)C(=O)C(C(N)=O)=C(O)[C@@H](N(C)C)[C@@H]1C2 [Compound 106, Anhydrotetracycline, reference compound]
IC50 [3, 5]: 70 ± 10 µM
IC50 ([3]; blue light, start of course, read-out: Apparent IC50 value at start of blue light course): 500 ± 60 µM
IC50 ([3]; dark, 240 min preincubation, read-out: Apparent IC50 value over 240 min preincubation): 340 ± 40 µM

CN(C)[C@@H]1C(O)=C(C(N)=O)C(=O)[C@@]2(O)C(O)=C3C(=O)c4c(O)cccc4[C@@](C)(O)[C@H]3C[C@@H]12 [TC, tetracycline, reference compound]
MIC ([1]; read-out: MIC of TC against TetX7::pZE24): 16 µg/mL
MIC ([2]; read-out: MIC of TC against Tet50::pZE24): 16 µg/mL
